In PMC5011342, “A high throughput drug screening assay to identify compounds that promote oligodendrocyte differentiation using acutely dissociated and purified oligodendrocyte precursor cells” (BMC Research Notes, 2016):
Like-named read-outs stand apart in the source and are kept apart here.

Experiments:
[1] = tested on: acutely dissociated and purified rat OPCs; assay: Acute OL differentiation assay (MBP expression/cell, immunofluorescent image quantification); type: cell-based; details: for activation at 0.4 µM / activation at 2 µM / activation at 10 µM / activation at 0.08 µM: Rattus norvegicus
In short: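 This acute differentiation assay used purified rat OPCs from postnatal day 6–7 pups, seeded into PDL/laminin-coated 96-well plates in differentiation medium lacking PDGF and FGF. Compounds were applied in quadruplicate after a 1–2 h preincubation at 37 °C, 10 % CO2, with 0.1 % DMSO negative and 40 ng/ml T3 positive controls in eight wells. After fixation on DIV4, anti-MBP immunofluorescence images yielded MBP expression/cell.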

[2] = tested on: expanded OPCs; assay: cells; details: for viability at 0.1 µM / viability at 1 µM / viability at 10 µM: Rattus norvegicus, 72 h
In short: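 Toxicity screen: compounds added at 0.1, 1 and 10 µM to PDGF-AA-expanded OPCs in 96-well plates, 3-day incubation at 37 °C, 10% CO2, then alamarBlue 1:10 for 4 h with fluorescence readout. Results set screening doses of 10/2, 2/0.4 or 0.4/0.08 µM.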

[3] = 0.4 uM test compound, relative to quetiapine, sheet "All OLga data", read-out: OL differentiation, 0.4 uM (% Quet)
[4] = 2 uM test compound, relative to quetiapine, sheet "All OLga data", read-out: OL differentiation, 2 uM (% Quet)
[5] = read-out: 0.1 µM (% DMSO), alamarBlue viability of expanded OPCs, compound at 0.1 µM, sheet All Tox data
[6] = read-out: 1 µM (% DMSO), alamarBlue viability of expanded OPCs, compound at 1 µM, sheet All Tox data
[7] = read-out: 10 µM (% DMSO), alamarBlue viability of expanded OPCs, compound at 10 µM, sheet All Tox data
[8] = 10 uM test compound, relative to quetiapine, sheet "All OLga data", read-out: OL differentiation, 10 uM (% Quet)
[9] = alamarBlue viability of expanded OPCs, compound at 0.1 µM, relative to DMSO control
[10] = alamarBlue viability of expanded OPCs, compound at 1 µM, relative to DMSO control
[11] = alamarBlue viability of expanded OPCs, compound at 10 µM, relative to DMSO control
[12] = test compound at 2 uM, NCC library screen, sheet "All OLga data", relative to quetiapine, read-out: 2 uM (% Quet)
[13] = test compound at 10 uM, NCC library screen, sheet "All OLga data", relative to quetiapine, read-out: 10 uM (% Quet)
[14] = test compound at 0.08 uM, NCC library screen, sheet "All OLga data", relative to quetiapine, read-out: 0.08 uM (% Quet)
[15] = test compound at 0.4 uM, NCC library screen, sheet "All OLga data", relative to quetiapine, read-out: 0.4 uM (% Quet)
[16] = read-out: 0.1 µM (% DMSO), alamarBlue viability, NCC library compound at 0.1 µM, sheet "All Tox data"
[17] = read-out: 1 µM (% DMSO), alamarBlue viability, NCC library compound at 1 µM, sheet "All Tox data"
[18] = read-out: 10 µM (% DMSO), alamarBlue viability, NCC library compound at 10 µM, sheet "All Tox data"
[19] = test compound at 2 uM, MBP expression relative to quetiapine, NCC library screen, sheet "All OLga data", read-out: 2 uM (% Quet)
[20] = test compound at 10 uM, MBP expression relative to quetiapine, NCC library screen, sheet "All OLga data", read-out: 10 uM (% Quet)

Structure (SMILES)	activation at 2 µM [1, 4] [%]	viability at 0.1 µM [2, 5] [%]	viability at 1 µM [2, 6] [%]	viability at 10 µM [2, 7] [%]	0.1 µM (% DMSO) [2, 9] [% DMSO]	1 µM (% DMSO) [2, 10] [% DMSO]	10 µM (% DMSO) [2, 11] [% DMSO]	other results
CN1CCCCC1CCN1c2ccccc2Sc2ccc([S+](C)[O-])cc21 (centres unmarked) [Mesoridazine]	-3.1	82.1	76.6	28.3				activation at 0.4 µM [1, 3]: 6.6%
COc1cc(CNC(=O)CCCC/C=C\C(C)C)ccc1O [Zucapsaicin]	-17	85.6	72	36.9				activation at 0.4 µM [1, 3]: 13.2%
Cc1ncc2n1-c1ccc(Cl)cc1C(c1ccccc1F)=NC2 [Midazolam]	-15.2	91	99.9	128				activation at 10 µM [1, 8]: -81.7%
Oc1c(Cl)cc(Cl)c(Cl)c1Cc1c(O)c(Cl)cc(Cl)c1Cl [Hexachlorophene]					115.4	10.8	9.0	activation at 0.08 µM ([1]; read-out: 0.08 uM (% Quet)): -122%
CC(=O)O[C@]1(C(C)=O)CC[C@H]2[C@@H]3C[C@H](C)C4=CC(=O)CC[C@]4(C)[C@H]3CC[C@@]21C [Medroxyprogesterone acetate]					104.2	103.1	118.4	activation at 2 µM [1, 12]: -30.5%; activation at 10 µM [1, 13]: -36.7%
C=C1/C(=C\C=C2/CCC[C@]3(C)[C@@H]([C@H](C)/C=C/[C@@H](O)C4CC4)CC[C@@H]23)C[C@@H](O)C[C@@H]1O [Calcipotriene]	-7.8	98.3	89	11.5				activation at 0.4 µM [1, 3]: 14.8%
O=c1c(O[C@@H]2O[C@H](CO)[C@H](O)[C@H](O)[C@H]2O)c(-c2ccc(O)c(O)c2)oc2cc(O)cc(O)c12 [Hyperoside]		90.3	29.8	14.6				activation at 0.08 µM ([1]; 0.08 uM test compound, relative to quetiapine, sheet "All OLga data", read-out: OL differentiation, 0.08 uM (% Quet)): -14.3%; activation at 0.4 µM [1, 3]: -70.9%
CNCCCN1c2ccccc2CCc2ccccc21 [Desipramine]					75.5	43.8	16.4	activation at 0.08 µM ([1]; test compound at 0.08 uM, MBP expression relative to quetiapine, NCC library screen, sheet "All OLga data", read-out: 0.08 uM (% Quet)): 8.9%; activation at 0.4 µM ([1]; test compound at 0.4 uM, MBP expression relative to quetiapine, NCC library screen, sheet "All OLga data", read-out: 0.4 uM (% Quet)): -5.3%
Cl.Cl.O=C(O)COCCN1CCN(C(c2ccccc2)c2ccc(Cl)cc2)CC1 (centres unmarked) [Virlix]								2 uM (% Quet) ([1]; test compound at 2 uM, MBP expression relative to quetiapine, NCC library screen, sheet "All OLga data"): 3.4 % Quet; 10 uM (% Quet) ([1]; test compound at 10 uM, MBP expression relative to quetiapine, NCC library screen, sheet "All OLga data"): -0.36 % Quet; 0.1 µM (% DMSO) [2]: 98.3 % DMSO; 1 µM (% DMSO) [2]: 92.7 % DMSO; 10 µM (% DMSO) [2]: 81.0 % DMSO
CCCc1cc(=O)[nH]c(=S)[nH]1 [Propylthiouracil]					90.3	95.9	90.8	activation at 2 µM [1, 12]: -0.9%; activation at 10 µM [1, 13]: 11.7%
COC(=O)C[C@](O)(CCCC(C)(C)O)C(=O)O[C@@H]1C(OC)=C[C@]23CCCN2CCc2cc4c(cc2[C@H]13)OCO4 [Homoharringtonine]								activation at 0.08 µM [1, 14]: -112%; activation at 0.4 µM [1, 15]: -172%; viability at 0.1 µM [2, 16]: 10.7%; viability at 1 µM [2, 17]: 9.9%; viability at 10 µM [2, 18]: 9.6%
CC(C)C[C@H](NC(=O)[C@@H](O)[C@H](N)Cc1ccccc1)C(=O)O [Ubenimex]								activation at 2 µM [1, 12]: -3.1%; activation at 10 µM [1, 13]: 9.5%; viability at 0.1 µM [2, 16]: 112%; viability at 1 µM [2, 17]: 112%; viability at 10 µM [2, 18]: 123%
CCOC(=O)C1=C(COCCN)NC(C)=C(C(=O)OC)C1c1ccccc1Cl (centres unmarked) [Amlodipine]								activation at 0.08 µM [1, 14]: -17.1%; activation at 0.4 µM [1, 15]: -39.6%; viability at 0.1 µM [2, 16]: 69.7%; viability at 1 µM [2, 17]: 22.7%; viability at 10 µM [2, 18]: 8.6%
O=C(N[C@H](CO)[C@H](O)c1ccc([N+](=O)[O-])cc1)C(Cl)Cl [Chloramphenicol]					87.1	93.2	90.9	activation at 2 µM [1, 19]: 9.3%; activation at 10 µM [1, 20]: 1.1%
COc1ccc(Cl)cc1C(=O)NCCc1ccc(S(=O)(=O)NC(=O)NC2CCCCC2)cc1 [Glyburide]					95.4	91.5	85.2	activation at 2 µM [1, 12]: -19.5%; activation at 10 µM [1, 13]: -20.2%
CN(C)CCCSc1ccccc1NC(=O)/C=C/c1ccccc1 [Cinanserin]	64.2	80.3	84.3	74.7				activation at 10 µM [1, 8]: 63.5%
CCc1cccc2c3c([nH]c12)C(CC)(CC(=O)O)OCC3 (centres unmarked) [Etodolac]					98.7	88.3	92.3	activation at 2 µM [1, 19]: 20.9%; activation at 10 µM [1, 20]: 7.5%
OC[C@H]1O[C@@H](Oc2cc(O)cc(/C=C/c3ccc(O)cc3)c2)[C@H](O)[C@@H](O)[C@@H]1O [Polydatin]	-15	106	110	113				activation at 10 µM [1, 8]: -20.9%
CC(C)C(=O)Nc1ccc([N+](=O)[O-])c(C(F)(F)F)c1 [Flutamide]					88.5	91.4	103.8	activation at 2 µM [1, 12]: 2.7%; activation at 10 µM [1, 13]: -38.5%
Nc1nc(N)nc(-c2cc(Cl)ccc2Cl)n1 [Irsogladine]	20.6	92.2	92.7	94.8				activation at 10 µM [1, 8]: 6.1%
CC[C@H](C)C(=O)O[C@H]1CCC=C2C=C[C@H](C)[C@H](CC[C@@H]3C[C@@H](O)CC(=O)O3)[C@H]21 [Mevistatin]								0.4 uM (% Quet) ([1]; test compound at 0.4 uM, NCC library screen, sheet "All OLga data", relative to quetiapine): -87.3 % Quet; 2 uM (% Quet) ([1]; test compound at 2 uM, NCC library screen, sheet "All OLga data", relative to quetiapine): -111.9 % Quet; 0.1 µM (% DMSO) ([2]; alamarBlue viability, NCC library compound at 0.1 µM, sheet "All Tox data"): 135.8 % DMSO; 1 µM (% DMSO) ([2]; alamarBlue viability, NCC library compound at 1 µM, sheet "All Tox data"): 96.3 % DMSO; 10 µM (% DMSO) ([2]; alamarBlue viability, NCC library compound at 10 µM, sheet "All Tox data"): 54.8 % DMSO
COc1ccc2cc([C@H](C)C(=O)O)ccc2c1 [Naproxen]								activation at 2 µM [1, 12]: 1%; activation at 10 µM [1, 13]: -0.6%; viability at 0.1 µM [2, 16]: 91.1%; viability at 1 µM [2, 17]: 95.1%; viability at 10 µM [2, 18]: 94%
CC[C@@H]1C(=O)OC[C@@H]1Cc1cncn1C [Pilocarpine]	0.3	90.2	101	90.1				activation at 10 µM [1, 8]: 6.6%
CCOc1cc(CC(=O)N[C@@H](CC(C)C)c2ccccc2N2CCCCC2)ccc1C(=O)O [Repaglinide]								activation at 2 µM [1, 12]: 13.8%; activation at 10 µM [1, 13]: -23.7%; viability at 0.1 µM [2, 16]: 90.5%; viability at 1 µM [2, 17]: 96.8%; viability at 10 µM [2, 18]: 125%
CN(C)[C@@H]1C(O)=C(C(N)=O)C(=O)[C@@]2(O)C(O)=C3C(=O)c4c(O)cccc4[C@@](C)(O)[C@H]3[C@H](O)[C@@H]12 [Oxytetracycline]					98.0	97.7	93.6	activation at 2 µM [1, 19]: -42.7%; activation at 10 µM [1, 20]: -36.7%
CCOC(=O)[C@@]1(CCCCCCOc2ccc(Cl)cc2)CO1 [Etomoxir]	10.1	85.7	92.3	86.2				activation at 10 µM [1, 8]: 5.4%
CCN1CCCC1CNC(=O)c1cc(S(=O)(=O)CC)ccc1OC (centres unmarked) [Sultopride]	7.7	93.7	89.8	96.2				activation at 10 µM [1, 8]: 0%
